Entries after “also recorded” stand apart in the source; their conditions may differ. Read-outs that look alike come from different tables or passages of the source.
Columns and labels:
Tau aggregates [1] = test: Micro-autoradiography of Example-1 [^3H-1] on AD tissue; format: binding, human; conditions: AD brain tissue, compared to [3H]-Tau-Ref
Procedure: (§1) The protocol was adapted from Marquie et al., 2015. Sections were incubated with tritiated example compound 1 (Example-1 [3H-1]) or a reference Tau ligand ([3H]-Tau-Ref at 60 nM for one hour at room temperature (RT). Sections were then washed as follows: One time in ice-cold 50 mM Tris-HCl pH 7.4 buffer for one minute, two times in 70% ice-cold ethanol for one minute, one time in ice-cold 50 mM Tris-HCl pH 7.4 buffer for one minute and finally rinsed briefly in ice-cold distilled water. Sections were subsequently dried and then exposed to Ilford Nuclear Emulsion Type K5 (Agar Scientific, AGP9281) in a light-proof slide storage box. After five days, the sections were developed by immersing them successively in the following solutions: 1.) Ilford Phenisol Developer (1:5 dilution in H2O, Agar Scientific, AGP9106), 2.) Ilfostop solution (1:20 dilution in H2O, Agar Scientific, AGP9104), 3.) Ilford Hypam Fixer (1:5 dilution in H2O, Agar Scientific, AGP9183) and finally rinsed with H2O. […]

a-syn pathology = biological target: T1, a-syn pathology (Homo sapiens, UniProt P37840); test: Autoradiography of Example-1 [^3H-1] in brain sections from PD, PDD, MSA, LBV and NDC donors; format: binding; conditions: 10 nM
T1 construct: performed on frozen human brain sections from different a-synucleinopathy cases; from tissue; host or cells: frozen human brain sections (PD, PDD, MSA, DLB, LBV; NDC as controls)
Procedure: (§2) Frozen human brain sections from one PD case, two PDD cases, two MSA cases, one LBV case and three non-demented control (NDC) cases were first briefly fixed for 15 minutes at 4° C. with 4% paraformaldehyde (Sigma, 252549) and washed three times for five minutes with PBS (Dulbecco's phosphate buffered saline, Sigma) at RT. All slides were then equilibrated for 20 minutes in 50 mM Tris-HCl pH 7.4 buffer prior to use in the experiment. Each brain section was incubated with a fixed concentration (10 nM) of tritiated example compound 1 (Example-1 [^3H-1]) in Tris-HCl buffer for two hours at RT (Total binding, ‘Total’). […] The slides were washed and then exposed and scanned in a real-time autoradiography system (BeaQuant instrument, ai4R).

[2] = biological target: T2, pathological a-synuclein aggregates (Homo sapiens, UniProt P37840); test: Autoradiography of Example-1 [^3H-1] in brain sections from PD, PDD and NDC donors; format: binding
Procedure: (§3) Frozen human brain sections from one familial PD case (a-synuclein [SNCA] gene G51 D missense mutation), labelled as SNCA (G51 D), one PDD case and two non-demented control (NDC) cases were first briefly fixed for 15 minutes at 4° C. with 4% paraformaldehyde (Sigma, 252549) and washed three times for five minutes with PBS (Dulbecco's phosphate buffered saline, Sigma) at RT. All slides were then equilibrated for 20 minutes in 50 mM Tris-HCl pH 7.4 buffer prior to use in the experiment. Each brain section was incubated with a fixed concentration (10 nM) of tritiated example compound 1 (Example-1 [^3H-1]) or a reference a-syn ligand ([3H]-a-syn-Ref), or increasing concentrations of Example-1 [^3H-1] in the range of 1.25 nM to 80 nM of tritiated compound in Tris-HCl buffer for two hours at RT (Total binding, ‘−’). To determine non-specific (NS) binding Example-1 [^3H-1] or [3H]-a-syn-Ref was mixed with 1 μM of non-radiolabelled compound (Example 1 or a-syn-Ref respectively, self-block, ‘+’). The slides were washed and placed under Phosphor imaging screens (GE healthcare, BAS-IP TR 2025) in imaging cassettes. Imaging screens were scanned using a laser imaging system (Typhoon, FLA 7000) and resulting images were analyzed using the ImageJ software package.

[3] = biological target: T3, pathological a-synuclein aggregates (Homo sapiens, UniProt P37840, G51D); test: as above; format: binding; conditions: Genetic PD (SNCA (G51D)) brain tissue, autoradiography
T3 construct: Frozen human brain sections from one familial PD case; from tissue; host or cells: frozen human brain sections: familial PD (SNCA G51D), PDD or idiopathic PD, MSA, NDC controls
Procedure: as §3

[4] = biological target: T4, TAR DNA-binding protein 43 (TDP-43) aggregates (Homo sapiens, UniProt Q13148); test: Micro-autoradiography of Example-1 [^3H-1] on FTLD-TDP type C tissue; conditions: FTLD-TDP Type C brain tissue
T4 construct: present in Frontotemporal Lobar Degeneration TDP (FTLD-TDP) Type C brain tissue; from tissue; host or cells: FTLD-TDP type C brain tissue sections
T4 sequence (Q13148 whole entry): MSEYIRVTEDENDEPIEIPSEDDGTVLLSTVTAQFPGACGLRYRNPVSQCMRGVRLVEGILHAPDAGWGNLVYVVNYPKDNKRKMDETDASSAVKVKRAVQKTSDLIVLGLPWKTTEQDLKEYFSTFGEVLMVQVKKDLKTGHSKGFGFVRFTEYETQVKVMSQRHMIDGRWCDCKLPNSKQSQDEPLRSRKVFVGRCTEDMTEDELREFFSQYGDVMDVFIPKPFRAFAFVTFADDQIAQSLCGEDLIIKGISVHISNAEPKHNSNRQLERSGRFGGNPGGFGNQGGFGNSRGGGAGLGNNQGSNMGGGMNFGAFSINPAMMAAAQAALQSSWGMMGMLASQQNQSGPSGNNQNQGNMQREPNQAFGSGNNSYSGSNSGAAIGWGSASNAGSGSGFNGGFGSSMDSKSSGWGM
Procedure: as §1

[5] = biological target: T5, PD brain-derived a-syn aggregates (Homo sapiens, UniProt P37840); test: Saturation binding of Example-1 [^3H-1] by micro-radiobinding; conditions: head-to-head with [3H]-a-syn-Ref
T5 construct: from tissue; host or cells: human PD donor brain, sarkosyl-insoluble 100,000 x g pellet
Procedure: PD brain-derived a-syn aggregates were spotted onto microarray slides. The slides were incubated with Example-1 [^3H-1] or [3H]-a-syn-Ref at increasing concentrations in the range of 300 pM to 150 nM. After incubation, slides were washed and exposed to a phosphor storage screen (GE healthcare, BAS-IP TR 2025). Following exposure, phosphor storage screens were scanned with a laser imaging system (Typhoon FLA 7000) to readout the signal from the radiobinding experiments described above. Quantification of the signal was performed using the ImageJ software package.

[6] = biological target: T6, a-syn aggregates (Lewy bodies and Lewy neurites) (Homo sapiens, UniProt P37840); test: High resolution micro-autoradiography of Example-1 [^3H-1] in a-synucleinopathy tissues; format: binding; conditions: 60 nM; PD, PDD, MSA, DLB, LBV tissue
T6 construct: performed on frozen human brain sections from different a-synucleinopathy cases; from tissue; host or cells: frozen human brain sections (PD, PDD, MSA, DLB, LBV; NDC as controls)
Procedure: (§4) The protocol was adapted from Marquie et al., 2015. Sections were incubated with tritiated example compound 1 (Example-1 [3H-1]) or a reference Tau ligand ([3H]-Tau-Ref at 60 nM for one hour at room temperature (RT). Sections were then washed as follows: One time in ice-cold 50 mM Tris-HCl pH 7.4 buffer for one minute, two times in 70% ice-cold ethanol for one minute, one time in ice-cold 50 mM Tris-HCl pH 7.4 buffer for one minute and finally rinsed briefly in ice-cold distilled water. Sections were subsequently dried and then exposed to Ilford Nuclear Emulsion Type K5 (Agar Scientific, AGP9281) in a light-proof slide storage box. After five days, the sections were developed by immersing them successively in the following solutions: 1.) Ilford Phenisol Developer (1:5 dilution in H2O, Agar Scientific, AGP9106), 2.) Ilfostop solution (1:20 dilution in H2O, Agar Scientific, AGP9104), 3.) Ilford Hypam Fixer (1:5 dilution in H2O, Agar Scientific, AGP9183) and finally rinsed with H2O.
(§5) When indicated, immunostaining was also performed on the same section. For image acquisition, sections were mounted using ProLong Gold Antifade reagent (Invitrogen P36930) and imaged on a Panoramic150 Slide Scanner (3DHistech) with a 20× objective capturing separately brightfield and fluorescent images. […]

[7] = biological target: T2, pathological a-synuclein aggregates; test: Autoradiography of Example-1 [^3H-1] in brain sections from PD, PDD and NDC donors; format: binding; set-up: Frozen human brain sections from one familial PD case; from tissue; host or cells: frozen human brain sections: familial PD (SNCA G51D), PDD or idiopathic PD, MSA, NDC controls; conditions: PDD brain tissue, autoradiography
Procedure: as §3

[8] = biological target: T5, PD brain-derived a-syn aggregates; test: Saturation binding of Example-4 [^3H-4] by micro-radiobinding; conditions: PD homogenates
Procedure: PD brain-derived a-syn aggregates were spotted onto microarray slides. The slides were incubated with Example-4 [^3H-4] at increasing concentrations in the range of 1.56 nM to 80 nM. After incubation, slides were scanned by a real-time autoradiography system (BeaQuant instrument, ai4R). Quantification of the signal was performed by using the Beamage image analysis software (ai4R).

[9] = biological target: T6, a-syn aggregates (Lewy bodies and Lewy neurites); test: High resolution micro-autoradiography of Example-4 [^3H-4] on PD tissue; format: binding; conditions: 20 nM
Procedure: as §4, with “4 (Example-4 [^3H-4])” for “1 (Example-1 [3H-1])”, “([^3H]-Tau-Ref” for “([3H]-Tau-Ref”, “20” for “60”, “RT.” for “room temperature (RT).”
as §5

pathological a-synuclein = test: Autoradiography of Example-4 [^3H-4] in brain sections from PD, MSA and NDC donors; format: binding, human; conditions: 10 nM
Procedure: as §2, with “one familial PD case (a-synuclein [SNCA] gene G51 D missense mutation), labelled as SNCA, one idiopathic” for “one”, “case, one” for “case, two PDD cases, two”, “MSA” for “MSA cases, one LBV”, “and two” for “and three”, “compound 4 (Example-4 [^3H-4])” for “compound 1 (Example-1 [^3H-1])”

Tau aggregates [10] = test: Micro-autoradiography of Example-4 [^3H-4] on AD tissue; format: binding, human; conditions: AD brain tissue, compared to [^3H]-Tau-Ref
Procedure: as §4, with “4 (Example-4 [^3H-4])” for “1 (Example-1 [3H-1])”, “([^3H]-Tau-Ref” for “([3H]-Tau-Ref”, “20” for “60”, “RT.” for “room temperature (RT).”

SMILES | target engagement on Tau aggregates (Tau aggregates [1]) | autoradiographic signal in non-demented control cases (a-syn pathology) | target engagement in a-synucleinopathy tissues (a-syn pathology; MSA, LBV, PDD cases) | Kd ([2]; PDD and genetic PD tissue, range of both, read-out: dissociation constant (Kd)) | binding in non-diseased tissue (NDC) ([2]; autoradiography, 10 nM) | specific binding in a-synucleinopathy brain sections ([2]; autoradiography, PDD and PD tissue, compared to [3H]-a-syn-Ref at 10 nM) | B max [3] | Kd [3] | binding to TDP-43 aggregates [4] | binding site occupancy [5] | target engagement on Lewy bodies and Lewy neurites (silver grains) [6] | B max [7] | Kd [7] | Kd [8] | target engagement on Lewy bodies and Lewy neurites (silver grains) [9] | signal in non-diseased control cases (pathological a-synuclein) | specific binding in a-synucleinopathy tissues (pathological a-synuclein; MSA, familial PD, idiopathic PD) | target engagement on Tau aggregates (Tau aggregates [10]) | target engagement on Tau aggregates (Tau aggregates [10]; listed as Example-4 [^3H-1])
[3H]c1cncc(N2Cc3nn(-c4cnc(N5CC[C@@H](F)C5)c([3H])c4)cc3C2=O)c1 [Example-1 [^3H-1]] | No accumulation of silver grains on Tau tangles; also recorded: did not display specific target engagement | weak | target engagement | 11 to 13 nM | very weak binding | improved total and excellent specific binding | 3004 | 13 nM | No accumulation of silver grains on TDP-43 aggregates; also recorded: very weak to no binding | high and improved binding site occupancy | Accumulation of silver grains on Lewy bodies and Lewy neurites; also recorded: strong target engagement | 1104 | 11 nM | – | – | – | – | – | –
[3H]C([3H])([3H])n1cc(N2Cc3nn(-c4ccc(N5CC[C@@H](F)C5)nc4)cc3C2=O)cn1 [Example-4 [^3H-4]] | – | – | – | – | – | – | – | – | – | – | – | – | – | 21 nM | Accumulation of silver grains on Lewy bodies and Lewy neurites; also recorded: strong target engagement | very weak signal | specific binding | did not display specific target engagement | No accumulation of silver grains
